“And” between values parts separate entries of the source, which are not always exact repeats. Equal entries are not always repeated.

13 molecules from the Deep4Chem optical property database can be followed below.

This series in a line: solvent given as SMILES.

On to `CCOC(=O)CCCCCn1c2ccc(F)cc2c(=O)c2cc3c(cc21)c(=O)c1cc(F)ccc1n3CCCCCC(=O)OCC`, for which the fluorescence lifetime (in CO) came out at 22.7 ns.

`COc1cccc(/C=C/c2ccccc2)c1` came in with a fluorescence lifetime (in CC#N) of 0.93 ns.

As to `Fc1c(F)c(-n2c3ccccc3c3ccccc32)c(F)c(-n2c3ccccc3c3ccccc32)c1-c1nnc(-c2ccccc2)o1`, the fluorescence lifetime (in Cc1ccccc1) came to 4.8 ns.

With `CCCCCCN(CCCCCC)c1ccc(C#Cc2ccc(C#Cc3ccc(-c4ccc(C#Cc5ccc(C#Cc6ccc(N(CCCCCC)CCCCCC)cc6)cc5)cc4)cc3)cc2)cc1`, where the note is “in Cc1ccccc1”, the fluorescence lifetime is 0.8 ns.

Take `N#CC(C#N)=C(/C=C/c1ccc(N(c2ccccc2)c2ccccc2)cc1)c1ccc2c3c(cccc13)CC2`: the fluorescence lifetime turned out to be 3.5 ns (in C1CCOC1); 1.22 ns (in CC#N); 1.04 ns (in CC(C)=O); 3.01 ns (in CCOC(C)=O); 1.02 ns (in CN(C)C=O); 2.1 ns (in CO). The molecule further had a fluorescence lifetime (in Cc1ccccc1) of 2.26 ns and a fluorescence lifetime (in ClC(Cl)Cl) of 6.54 ns.

`CC1=C(c2ccc(N(c3ccccc3)c3ccccc3)cc2)C(C)=[N+]2C1=C(c1c(-c3ccccn3)nc3ccccn13)c1c(C)cc(C)n1[B-]2(F)F` came in with a fluorescence lifetime (in ClCCl) of 0.2 ns.

For `C(=C\c1ccc(N(c2ccccc2)c2ccccc2)cc1)/c1ccc(/C=C/c2ccc(N(c3ccccc3)c3ccccc3)cc2)cc1`, the fluorescence lifetime reads like this: (in C1CCOC1) 1.25 ns; (in CS(C)=O) 1.53 ns; (in Cc1ccccc1) 0.99 ns.

Take `CCN1C(=CC2=C([O-])C(=CC3=[N+](CC)c4ccccc4C3(C)C)C2=O)C(C)(C)c2ccccc21`: the fluorescence lifetime amounted to 0.2 ns (in CO) and 1.52 ns (in ClC(Cl)Cl).

On to `CCN(CC)c1ccc2c(C)cc(=O)oc2c1`, for which the fluorescence lifetime reads like this: (in C1CCCCC1) 2.8 ns; (in CC#N) 3.4 ns; (in CCCCCCCCO) 3.69 ns; (in CCCCCCO) 3.68 ns; (in CCCCO) 3.55 ns; (in CCCO) 3.48 ns. The fluorescence lifetime is, setting by setting: (in CCO) 3.15 ns and 2.04 ns and 3.1 ns; (in CCOC(C)=O) 3.1 ns; (in CO) 1.94 ns; (in O) 0.36 ns; (in OCC(O)CO) 3.8 ns.

Turning to `O=C([O-])c1ccccc1-c1c2ccc(=O)cc-2oc2cc([O-])ccc12`, the fluorescence lifetime reads like this: (in CC(C)O) 4.36 ns; (in CCCCCCCCO) 4.52 ns; (in CCCCCCO) 4.48 ns; (in CCCCO) 4.4 ns; (in CCCO) 4.42 ns; (in CCO) 4.25 ns. This molecule also yielded a fluorescence lifetime (in CO) of 4.28 ns, a fluorescence lifetime (in O) of 4.16 ns and a fluorescence lifetime (in [2H]O[2H]) of 4.36 ns.

As for `N#CC(C#N)=C(/C=C/c1cc2c3c(c1)CCCN3CCC2)c1ccc2c3c(cccc13)CC2`, the fluorescence lifetime runs as follows: (in C1CCOC1) 5.6 ns; (in CC#N) 2.62 ns; (in CC(C)=O) 2.8 ns; (in CCOC(C)=O) 5.46 ns; (in CN(C)C=O) 2.67 ns; (in CO) 1.63 ns. In addition, the fluorescence lifetime came to 4.48 ns (in Cc1ccccc1) and 6.68 ns (in ClC(Cl)Cl).

As to `O=C1c2ccc3c4ccc5c6c(ccc(c7ccc(c2c37)C(=O)N1c1ccncc1)c64)C(=O)N(c1ccncc1)C5=O`, the fluorescence lifetime reads like this: (in C1CCOC1) 1.92 ns; (in C1COCCO1) 3.27 ns; (in CC(C)=O) 2.9 ns; (in CC(C)O) 1.74 ns; (in CCCCO) 1.85 ns; (in CCO) 0.77 ns. The fluorescence lifetime is, setting by setting: (in CCOC(C)=O) 1.34 ns; (in CN(C)C=O) 1.69 ns; (in CO) 0.79 ns; (in CS(C)=O) 0.22 ns; (in ClC(Cl)(Cl)Cl) 3.75 ns; (in ClC(Cl)Cl) 3.74 ns.

The molecule `CCC(CC)COC1=CC2=C3c4cc(OCC(CC)CC)c(-c5ccccc5)n4[B-](F)(F)[n+]4c3n(c3cc(C(C)(C)C)ccc34)[B-](F)(F)[N+]2=C1c1ccccc1` showed a fluorescence lifetime (in C1CCOC1) of 0.97 ns and a fluorescence lifetime (in ClCCl) of 1.01 ns.
